System: A375 multi-cell spheroids with HUVEC/MSC, viability
Assay: Anticancer human tumor A375 cell line growth inhibition [GQUAD];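 further: spheroids exposed to compounds for seven days before readout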
Details: for IC50: curve of first compound; for viability, T/C: stronger effect = lower value
From the text: DNA G-quadruplex Stabilizer Agents in Combinations in Complex Spheroids
A high-throughput screen of multi-cell type tumor spheroids was designed to identify active combinations of DNA G-quadruplex stabilizer agents and targeted small molecules. Complex spheroids include a stromal component modeled by human endothelial cells (HUVEC) and fibroblasts modeled by human mesenchymal stem cells (MSCs). The concentration ranges selected for each drug and investigational agent were based upon clinically achievable concentrations if the clinical Cmax of the agent was known.
Compounds. The drugs and investigational agents: pidnarulex (CX-5461; NSC782164), APTO-253 (NSC789042), BRACO-19 (NSC847499), peposertib (NSC802822), ceralasertib (NSC780249), elimusertib (NSC800525), camonsertib (NSC841442), AZD-1390 (NSC803789), olaparib (NSC753686), talazoparib (NSC767125), ART-558 (NSC835418), sotorasib (NSC818433), MRTX-1133 (NSC836407), SN-38 (NSC673596), topotecan (NSC609699), etoposide (NSC141540), doxorubicin (NSC123127), gemcitabine (NSC613327), 5-fluorouracil (NSC19893), paclitaxel (NSC125973), vemurafenib (NSC761431), panobinostat (NSC761190), R-306465 (JNJ-16241199; NSC773264), adavosertib (NSC754352), TP-3654 (NSC805149), carboplatin (NSC241240), KSQ-4279 (NSC840948), and staurosporine (NSC755774) were obtained from the National Cancer Institute (NCI) Developmental Therapeutics Program Chemical Repository (34). The FDA-approved anticancer drug set is available from the NCI Developmental Therapeutics Program. […] The stock solutions were prepared in dimethyl sulfoxide (DMSO, Sigma-Aldrich, St. Louis, MO, cat. D2650) at 800-fold the tested concentration and stored at -70 degrees C prior to their use. All drugs and investigational agents were tested over a range starting from a high concentration at or near the clinical Cmax and decreasing in half-log increments. If the clinical Cmax for an agent had not been determined, the highest concentration tested was 10 microM.
2.3 Cell Culture. All cells were maintained in an incubator at 37 degrees C and 5% CO2 with 95% humidity. The PDC lines were cultured according to standard operating procedures established by the NCI PDMR. All PDCs were thawed and cultured in Matrigel-coated flasks prepared with a working solution of 1X Ham's F-12 nutrient mix, without supplementation (Invitrogen, cat. 11765054), 100 U/mL penicillin-streptomycin (Invitrogen, cat. 15140122), and 2.5% Matrigel (Corning Inc., cat. 354248) for the first three passages. The 857933-349-R-J2-PDC line was cultured in 6C/Colon 1B media, which includes advanced DMEM/F-12 (Thermo Fisher Scientific, cat. 12634028), 10 mM HEPES (Thermo Fisher Scientific, cat. 15630080), 1X GlutaMAX supplement (Thermo Fisher Scientific, cat. 35050061), 0.1 mg/mL primocin (InvivoGen, cat. ant-pm-2), 10% defined fetal bovine serum, heat inactivated (HyClone Laboratories Inc., cat. SH30070.03HI), 50% L-WRN conditioned media (ATCC, cat. CRL-3276), 1.25 mM N-Acetyl-L-cysteine (Sigma-Aldrich, cat. A9165), 10 mM nicotinamide (Sigma-Aldrich, cat. N0636), 1X B-27 supplement (Thermo Fisher Scientific, cat. 17504044), 1X N-2 supplement (Thermo Fisher Scientific, cat. 17502048), 10 microM Y-27632 dihydrochloride (Tocris Bioscience, cat. 1254), and 50 ng/mL human EGF recombinant protein (Thermo Fisher Scientific, cat. PHG0311). The 485176-168-R4-J1-PDC line was cultured in Panc media, which includes all 6C/Colon 1B media components plus 100 ng/mL human FGF-10 (Thermo Fisher Scientific, cat. 100-26), 500 nM SB-431542 (Selleckchem, cat. S1067), and gastrin (Tocris, cat. 3006).
[…]

[1] = second compound 0.0316 µM, first compound 0.0316 µM
[2] = second compound 0.0316 µM, first compound 0.316 µM
[3] = second compound 0.1 µM, first compound 0.0316 µM
[4] = second compound 0.1 µM, first compound 0.316 µM
[5] = second compound 0.316 µM, first compound 0.0316 µM
[6] = second compound 0.316 µM, first compound 0.316 µM
[7] = second compound 1 µM, first compound 0.0316 µM
[8] = second compound 1 µM, first compound 0.316 µM
[9] = second compound 3.16 µM, first compound 0.0316 µM
[10] = second compound 3.16 µM, first compound 0.316 µM
[11] = second compound 10 µM, first compound 0.0316 µM
[12] = second compound 10 µM, first compound 0.316 µM

Work on `Cc1[nH]c2ccccc2c1CCNCc1ccc(/C=C/C(=O)NO)cc1` + Cc1cnc(CNC(=O)c2c(=O)c3ccc(N4CCCN(C)CC4)nc3n3c2sc2ccccc23)cn1 yielded an IC50 (second compound 0.0316 µM) of 112 nM, an IC50 (second compound 0.1 µM) of 48.8 nM and an IC50 (second compound 0.316 µM) of 35.9 nM. The IC50 (second compound 1 µM) was less than 0.999 nM, the IC50 (second compound 3.16 µM) was less than 0.999 nM and the IC50 (second compound 10 µM) was less than 0.999 nM. For the same molecule, the viability, T/C (second compound 0.0316 µM, first compound 0.000999 µM) was 98.2%, the viability, T/C (second compound 0.0316 µM, first compound 0.00316 µM) was 103% and the viability, T/C (second compound 0.0316 µM, first compound 0.00999 µM) was 123%. For the same molecule, the viability, T/C [1] was 113%, the viability, T/C (second compound 0.0316 µM, first compound 0.0999 µM) was 54.4% and the viability, T/C [2] was 10.3%. The viability, T/C (second compound 0.1 µM, first compound 0.000999 µM) was 74.6%, the viability, T/C (second compound 0.1 µM, first compound 0.00316 µM) was 69.7% and the viability, T/C (second compound 0.1 µM, first compound 0.00999 µM) was 74%. For the same molecule, the viability, T/C [3] was 60.5%, the viability, T/C (second compound 0.1 µM, first compound 0.0999 µM) was 31.7% and the viability, T/C [4] was 8.85%. For the same molecule, the viability, T/C (second compound 0.316 µM, first compound 0.000999 µM) was 54.1%, the viability, T/C (second compound 0.316 µM, first compound 0.00316 µM) was 55.5% and the viability, T/C (second compound 0.316 µM, first compound 0.00999 µM) was 49%. The viability, T/C [5] was 53.9%, the viability, T/C (second compound 0.316 µM, first compound 0.0999 µM) was 25.2% and the viability, T/C [6] was 8.14%. The viability, T/C (second compound 1 µM, first compound 0.000999 µM) was 37.2%, the viability, T/C (second compound 1 µM, first compound 0.00316 µM) was 42.2% and the viability, T/C (second compound 1 µM, first compound 0.00999 µM) was 39.4%. It also gave a viability, T/C [7] of 35.4%, a viability, T/C (second compound 1 µM, first compound 0.0999 µM) of 18.7% and a viability, T/C [8] of 1.63%. It also gave a viability, T/C (second compound 3.16 µM, first compound 0.000999 µM) of 35.6%, a viability, T/C (second compound 3.16 µM, first compound 0.00316 µM) of 30.9% and a viability, T/C (second compound 3.16 µM, first compound 0.00999 µM) of 35.5%. For the same molecule, the viability, T/C [9] was 34.1%, the viability, T/C (second compound 3.16 µM, first compound 0.0999 µM) was 13.6% and the viability, T/C [10] was 0.08%. It also gave a viability, T/C (second compound 10 µM, first compound 0.000999 µM) of 30.9%, a viability, T/C (second compound 10 µM, first compound 0.00316 µM) of 25.6% and a viability, T/C (second compound 10 µM, first compound 0.00999 µM) of 29.1%. The viability, T/C [11] was 25%, the viability, T/C (second compound 10 µM, first compound 0.0999 µM) was 8.95% and the viability, T/C [12] was 0.14%.
Work on `Nc1ccn(C2OC(CO)C(O)C2(F)F)c(=O)n1` (centres undefined) + Cc1cnc(CNC(=O)c2c(=O)c3ccc(N4CCCN(C)CC4)nc3n3c2sc2ccccc23)cn1 yielded an IC50 (second compound 0.0316 µM) of less than 31.6 nM, an IC50 (second compound 0.1 µM) of less than 31.6 nM and an IC50 (second compound 0.316 µM) of less than 31.6 nM. The IC50 (second compound 1 µM) was less than 31.6 nM, the IC50 (second compound 3.16 µM) was less than 31.6 nM and the IC50 (second compound 10 µM) was less than 31.6 nM. It also gave a viability, T/C [1] of 22.9%, a viability, T/C (second compound 0.0316 µM, first compound 0.1 µM) of 10.1% and a viability, T/C [2] of 10.4%. The viability, T/C (second compound 0.0316 µM, first compound 1 µM) was 10.4%, the viability, T/C (second compound 0.0316 µM, first compound 3.16 µM) was 8.9% and the viability, T/C (second compound 0.0316 µM, first compound 10 µM) was 7.49%. For the same molecule, the viability, T/C [3] was 23.4%, the viability, T/C (second compound 0.1 µM, first compound 0.1 µM) was 10.8% and the viability, T/C [4] was 9.94%. The viability, T/C (second compound 0.1 µM, first compound 1 µM) was 10.3%, the viability, T/C (second compound 0.1 µM, first compound 3.16 µM) was 9.17% and the viability, T/C (second compound 0.1 µM, first compound 10 µM) was 7.13%. For the same molecule, the viability, T/C [5] was 22.3%, the viability, T/C (second compound 0.316 µM, first compound 0.1 µM) was 12.7% and the viability, T/C [6] was 9.56%. For the same molecule, the viability, T/C (second compound 0.316 µM, first compound 1 µM) was 11.4%, the viability, T/C (second compound 0.316 µM, first compound 3.16 µM) was 10% and the viability, T/C (second compound 0.316 µM, first compound 10 µM) was 7.6%. The viability, T/C [7] was 28.3%, the viability, T/C (second compound 1 µM, first compound 0.1 µM) was 14.9% and the viability, T/C [8] was 13.3%. The viability, T/C (second compound 1 µM, first compound 1 µM) was 13.8%, the viability, T/C (second compound 1 µM, first compound 3.16 µM) was 12.5% and the viability, T/C (second compound 1 µM, first compound 10 µM) was 7.97%. For the same molecule, the viability, T/C [9] was 29%, the viability, T/C (second compound 3.16 µM, first compound 0.1 µM) was 20.9% and the viability, T/C [10] was 18.9%. For the same molecule, the viability, T/C (second compound 3.16 µM, first compound 1 µM) was 14.1%, the viability, T/C (second compound 3.16 µM, first compound 3.16 µM) was 11.8% and the viability, T/C (second compound 3.16 µM, first compound 10 µM) was 6.29%. For the same molecule, the viability, T/C [11] was 24.9%, the viability, T/C (second compound 10 µM, first compound 0.1 µM) was 22.1% and the viability, T/C [12] was 19.1%. It also gave a viability, T/C (second compound 10 µM, first compound 1 µM) of 14.6%, a viability, T/C (second compound 10 µM, first compound 3.16 µM) of 10.9% and a viability, T/C (second compound 10 µM, first compound 10 µM) of 2.89%.
